Measurements published in BindingDB's records for doi:10.1073/pnas.0705637104 (Nih, 2007).

Biological target: T1, Lysosomal acid glucosylceramidase (Homo sapiens, UniProt P04062)
T1 sequence (P04062 whole entry): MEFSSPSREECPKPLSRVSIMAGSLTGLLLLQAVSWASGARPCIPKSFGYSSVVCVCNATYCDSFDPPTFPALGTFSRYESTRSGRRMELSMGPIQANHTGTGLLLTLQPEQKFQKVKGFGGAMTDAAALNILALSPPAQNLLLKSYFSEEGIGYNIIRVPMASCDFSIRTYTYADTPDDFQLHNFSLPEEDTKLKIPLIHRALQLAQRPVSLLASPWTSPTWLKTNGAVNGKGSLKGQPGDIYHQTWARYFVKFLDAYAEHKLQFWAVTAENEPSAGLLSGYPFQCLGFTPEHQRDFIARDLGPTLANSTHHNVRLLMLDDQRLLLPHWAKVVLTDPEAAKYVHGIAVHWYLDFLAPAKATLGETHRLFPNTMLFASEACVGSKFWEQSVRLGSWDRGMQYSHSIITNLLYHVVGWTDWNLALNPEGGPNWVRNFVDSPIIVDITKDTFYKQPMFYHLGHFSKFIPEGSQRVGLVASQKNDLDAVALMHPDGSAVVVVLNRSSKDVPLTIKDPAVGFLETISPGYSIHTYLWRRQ
Test: GC Enzyme Assay
Settings: pH 5.9; 21 °C

IC50 [µM]	Ki [µM]	SMILES
34.4	23.4	CN(c1ccc(C(=O)Nc2nccs2)cc1)S(=O)(=O)c1ccccc1
1.29	0.556	O=C(Nc1nccs1)c1ccc(NS(=O)(=O)c2ccc(Cl)cc2)cc1 [4-[(4-chlorobenzene)sulfonamido]-N-(1,3-thiazol-2-yl)benzamide]
